Literature values in publication PMC4387274, “A phase 1 dose escalation study of BI 831266, an inhibitor of Aurora kinase B, in patients with advanced solid tumors” (Investigational New Drugs, 2014).

Tests used:
acute myeloid leukemia = test system: acute myeloid leukemia; set-up: method as in PMID 23605952; conditions: compared with low-dose cytosine arabinoside control arm
[1] = 121 patients with solid malignancies

Structure (SMILES) | Safety in ongoing phase 1 study (solid malignancies; 105 mg in Schedule A) | Objective responses (solid malignancies; [1]) | Patients achieving SD (solid malignancies; [1]) | Objective clinical response rate (acute myeloid leukemia)
CC(C)NC(=O)[C@H]1CCC[C@H]1Nc1nc(Nc2ccc(C(=O)N(C)C3CCN(C)CC3)cc2)ncc1C(F)(F)F [BI 811283] | no significant safety issues | no objective responses | a third of the patients | –
CCN(CCCOc1ccc2c(Nc3cc(CC(=O)Nc4cccc(F)c4)n[nH]3)ncnc2c1)CCOP(=O)(O)O [barasertib] | – | – | – | superior objective clinical response rate
